From patent publication US20240228535A1 (priority 2022, published 2024) come the findings set out here.

The assay concerns the target SARS2 coronavirus 3CL protease (Severe acute respiratory syndrome coronavirus 2, UniProt P0DTD1). In words: biochemical. As to conditions: 5 nM enzyme, 30 min pre-incubation with compound, 15 μM peptide substrate, 4 h at room temperature; read-out: FRET Potency (nM); IC50 values in the SARS2 3CLPro FRET assay.
Turning to `C[C@@H]1C[C@@H](C[C@H](NC(=O)c2cc(Cl)ccc2NC(=O)c2ccnc(C(F)(F)F)c2)C(=O)C(N)=O)C(=O)N1` [Example 208, N-[2-[[(1S)-3-amino-1-[[(3S,5R)-5-methyl-2-oxo-pyrrolidin-3-yl]methyl]-2,3-dioxo-propyl]carbamoyl]-4-chloro-phenyl]-2-(trifluoromethyl)pyridine-4-carboxamide], the IC50 was determined as 6.9 nM.
As for `C[C@@H]1C[C@@H](C[C@H](NC(=O)c2cc(Cl)ccc2NC(=O)C(C)(C)C(F)(F)F)C(=O)C(=O)NC2CC2)C(=O)N1` [Example 15, 5-chloro-N-[(1S)-3-(cyclopropylamino)-1-[[(3S,5R)-5-methyl-2-oxo-pyrrolidin-3-yl]methyl]-2,3-dioxo-propyl]-2-[(3,3,3-trifluoro-2,2-dimethyl-propanoyl)amino]benzamide], the figure is 33.5 nM; as for `C[C@@H]1C[C@@H](C[C@H](NC(=O)c2cc(F)c(F)cc2NC(=O)c2cncc(C(F)(F)F)c2)C(=O)C(=O)NC2CC2)C(=O)N1` [Example 99, N-[2-[[(1S)-3-(cyclopropylamino)-1-[[(3S,5R)-5-methyl-2-oxo-pyrrolidin-3-yl]methyl]-2,3-dioxo-propyl]carbamoyl]-4,5-difluoro-phenyl]-5-(trifluoromethyl)pyridine-3-carboxamide], 13 nM; as for `CNC(=O)C(=O)[C@H](C[C@@H]1C[C@@H](C)NC1=O)NC(=O)c1cc(C(F)F)ccc1NC(=O)OC` [Example 130, methyl N-[4-(difluoromethyl)-2-[[(1S)-3-(methylamino)-1-[[(3S,5R)-5-methyl-2-oxo-pyrrolidin-3-yl]methyl]-2,3-dioxo-propyl]carbamoyl]phenyl] carbamate], 20.7 nM.
As for `CNC(=O)C(=O)[C@H](C[C@@H]1C[C@@H](C)NC1=O)NC(=O)c1cc(Cl)ccc1NC(=O)OC1CC1` [Example 10, cyclopropyl (4-chloro-2-(((S)-1-((3S,5R)-5-methyl-2-oxopyrrolidin-3-yl)-4-(methylamino)-3,4-dioxobutan-2-yl)carbamoyl)phenyl)carbamate], the figure is 3.9 nM; as for `CNC(=O)C(=O)[C@H](C[C@@H]1C[C@@H](C)NC1=O)NC(=O)c1cc(Cl)ccc1NC(=O)c1ccc(C(F)(F)F)nc1` [Example 76, N-[4-chloro-2-[[(1S)-3-(methylamino)-1-[[(3S,5R)-5-methyl-2-oxo-pyrrolidin-3-yl]methyl]-2,3-dioxo-propyl]carbamoyl]phenyl]-6-(trifluoromethyl)pyridine-3-carboxamide], 5.3 nM.
Turning to `O=C(NC1CC1)C(=O)[C@H](C[C@@H]1CCNC1=O)NC(=O)c1cc(F)ccc1NC(=O)C1(C(F)(F)F)CC1` [Example 12, N-[(1S)-3-(cyclopropylamino)-2,3-dioxo-1-[[(3S)-2-oxopyrrolidin-3-yl]methyl]propyl]-5-fluoro-2-[[1-(trifluoromethyl)cyclopropane-carbonyl]amino]benzamide], the IC50 stood at 48.2 nM.
In the case of `C[C@@H]1C[C@@H](C[C@H](NC(=O)c2cc(Cl)ccc2NC(=O)[C@@H]2CN(C)C(=O)O2)C(=O)C(=O)NC2CC2)C(=O)N1` [Example 204, (5S)-N-[4-chloro-2-[[(1S)-3-(cyclopropylamino)-1-[[(3S,5R)-5-methyl-2-oxo-pyrrolidin-3-yl]methyl]-2,3-dioxo-propyl]carbamoyl]phenyl]-3-methyl-2-oxo-oxazolidine-5-carboxamide], the IC50 was 4.7 nM.
As for `CC(C)OC(=O)Nc1ccc(Cl)cc1C(=O)N[C@@H](C[C@@H]1C[C@@H](C)NC1=O)C(=O)C(=O)NC1CC1` [Example 6, isopropyl (4-chloro-2-(((S)-4-(cyclopropylamino)-1-((3S,5R)-5-methyl-2-oxopyrrolidin-3-yl)-3,4-dioxobutan-2-yl)carbamoyl)phenyl)carbamate], the figure is 4.8 nM.
